The structures appear in SMILES notation.

As a reminder, the melting point is the temperature of the solid-liquid transition. In turn, `O=C1NN=C(C(F)(F)F)C1=NNc1cccc([N+](=O)[O-])c1` showed a melting point of 254 °C. As for `COC(=O)c1cc(Cl)cc(Cl)c1`, the melting point was determined as 59 °C. `COc1cc(C(=O)O)c([N+](=O)[O-])cc1OC`: the melting point lay in the range of 195 to 197 °C.

`CC(=O)c1ccc(C2CC2Cl)cc1` (stereo not drawn): the melting point came out at 45 °C.

On to `CC(C)(C)OC(=O)N1CCN(c2ccc(I)cn2)CC1`, for which the melting point fell in the range of 102 to 105 °C. To `Cc1c(NC(=O)C(C(F)(F)F)C(F)(F)F)c(=O)n(-c2ccccc2)n1C` belongs 237 to 239 °C; to `N#Cc1cnc(N)s1`, 185 °C. To `CCCCN(C)C(=O)Nc1ccc(Cl)c(Cl)c1` belongs 102 °C; to `CNCc1csc(C2CCN(C(=O)OC(C)(C)C)CC2)n1`, 43 to 47 °C. With `CCCOC(=O)C1=C(C)NC(C)=C(C(=O)OCCC)C1c1ccccc1`, the melting point was 119 °C. In the case of `CC1(C)C(=S)NC(c2ccccc2)N1O` (stereo not drawn), the melting point lay within 193 to 195 °C. Regarding `CSc1nc2[nH]c(=S)[nH]c(=O)c2n1C`, the melting point was 289 to 290 °C. The compound `FC(F)(F)c1nn(CN2CCOCC2)c(=S)n1/N=C/c1ccc2c(c1)OCO2` had a melting point of 183 °C. With `Cc1ccc(-c2nc3ccc(C)cn3c2CC(=O)N(C)C)cc1`, the melting point turned out to be 196 °C. Turning to `Cc1ccccc1OC(=O)Oc1ccccc1C`, the melting point was 60 °C. The compound `CC1=CCC2C(C)(C)CCCC2(C)C12CCC(C)(CC(=O)O)O2` (stereo not drawn) registered a melting point of 100 °C. Take `Cc1cccc(N)c1C(=O)O`: the melting point stood at 124 °C. To `CCCCCCCCCCCCCCCC(=O)OCCOC(=O)CCCCCCCCCCCCCCC` belongs 72 °C; to `Cc1nc(-c2ccccc2)sc1N=C=O`, 82 to 83 °C; to `CCOC(=O)NN`, 46 °C. To `CC(C)(C)C(=O)Nc1ccc2nn(C3CCCC3)nc2c1` belongs 136 °C; to `CNC(=O)Oc1ccc(C)c(C)c1Cl`, 124 °C. In the case of `CC1c2ccccc2C(=O)C1c1ccccc1` (stereo not drawn), the melting point lay within 84 to 85.5 °C.

On to `Cc1cc(C)c2c(=O)n3ccccc3cc2c1`, for which the melting point was 114 °C. In the case of `COC(=O)c1scc(Br)c1O`, the melting point was 80 °C.

In turn, `C(=Nc1ccccc1Nc1ccccc1N=Cc1ccccc1)c1ccccc1` yielded a melting point of 102 to 104 °C.

`Oc1ccccc1C=Nn1c(S)nnc1C(F)(F)F` gave a melting point of 155 °C. As to `O=c1[nH]c2ncccc2o1`, the melting point lay in the range of 214 to 215 °C. `CCCCCCCCCCCC(O)CC` (stereo not drawn) gave a melting point of 31.5 °C. Compound `CC(C)(C)OC(=O)NO` returned a melting point of 57 °C. For the compound `O=C(C1CCCCC1)N1CC(=O)N2CCc3ccccc3C2C1` (stereo not drawn), the melting point was determined as 136 °C. Compound `CCC1CN2CCC1CC2C(O)c1ccnc2ccccc12` (stereo not drawn) displayed a melting point of 268 °C. In the case of `C=C1CCCCC1`, the melting point is -107 °C. Compound `O=[N+]([O-])c1cc(-c2ncco2)cc([N+](=O)[O-])c1` registered a melting point of 130 °C. In turn, `O=C1Cc2ccccc2C(=O)Cc2ccccc21` yielded a melting point of 207 to 209 °C. For the compound `ClC=CCCl` (mixture of isomers), the melting point was -50 °C. As to `Nc1nnc(S)s1`, the melting point was 243 to 244 °C. To `Cc1o[nH]c(=O)c1CC(N)C(=O)O` (racemic) belongs 240 to 252 °C; to `CCCCCCC(N)C(=O)O` (stereo not drawn), 270 °C. For `COC1(OC)CC=CCC(OC)(OC)CC=CC1`, the melting point lay within 201 to 202 °C. To `NC(=S)CS(=O)(=O)Cc1ccco1` belongs 128 to 130 °C.

As to `COc1ccccc1/C=C(\C#N)c1nc2ccccc2s1`, the melting point stood at 158 °C. `O=C(O)COc1ccc(Br)cc1` displayed a melting point of 156 to 161 °C. `CC(=O)CCc1oc2ccc(Br)cc2c1-c1ccc(C)o1` had a melting point of 79 °C. Turning to `O=[N+]([O-])c1ccc(/C=N/n2c(S)nnc2C(F)(F)F)cc1`, the melting point was 193 °C. To `CSc1ccc(C#N)cc1` belongs 62 °C. Consider `COC(=O)C1(S(=O)(=O)c2ccccc2)CCCC1`, for which the melting point was determined as 56.5 °C. `COC1=C/C(=N\O)C2(C)CCC1C2(C)C` (stereo not drawn) had a melting point of 185 °C. The compound `CCCCCOc1ccc(O)cc1` registered a melting point of 46 to 49 °C. `CCC(CCC(C)C1CCC2C3CC=C4CC(O)CCC4(C)C3CCC12C)C(C)C` (stereo not drawn) registered a melting point of 147 °C.

`O=C(O)c1ccc(N2CCOCC2)nc1`: the melting point was in the range of 256 to 257 °C. `NC1=NN(c2ccccc2)C(=O)C1`: the melting point was in the range of 210 to 215 °C.

In turn, `Cc1ccc([N+](=O)[O-])c(N)c1` yielded a melting point of 108 °C. To `CCOC(=O)/C(C(N)=S)=C1/NN=C(c2ccccc2O)O1` belongs 128 °C; to `CC(C)NC(=O)c1cc(F)c(Cl)nc1Cl`, 159 to 161 °C; to `Cn1nc(-c2cccs2)cc1C(=O)O`, 173 to 174 °C. Compound `Nc1ccc2c(c1)S(=O)(=O)C=C2` showed a melting point of 150 °C. Take `CC(C(C)P(c1ccccc1)c1ccccc1)P(c1ccccc1)c1ccccc1` (stereo not drawn): the melting point lay within 104 to 109 °C. To `N#CC1(O)CCCCC1` belongs 35 °C. To `Fc1ccc(C(Br)Br)c(C(Br)Br)c1` belongs 92 to 97 °C; to `O=Nc1c(Cl)cccc1Cl`, 172 °C. With `O=C(C(F)(F)F)C(F)(F)Cl`, the melting point was -133 °C.

`c1ccc2c(c1)Cc1ccccc1S2` yielded a melting point of 128 °C. For the compound `CN(C)CCN`, the melting point is -70 °C. `CCOC(=O)CNc1cc(NCC(=O)OCC)c([N+](=O)[O-])cc1[N+](=O)[O-]` showed a melting point of 198 °C. `Cc1cc(C(=O)Nc2ccc(Cl)cc2)no1`: the melting point fell in the range of 155 to 157 °C.

`CN(C)NC(=O)CCC(=O)O` gave a melting point of 158 to 162 °C.

The compound `CCOC(=O)c1ccc(CBr)cc1` gave a melting point of 30.5 °C. Compound `CCn1cc(C(=O)O)c(=O)c2cnc(N3CCNCC3)nc21` came in with a melting point of 254 °C.

`CCC(C)(CC)C(C)(C)C` gave a melting point of -42.5 °C. In turn, `CC12CCC(=O)C=C1CCC1C2C(O)CC2(C=O)C(C(=O)CO)CCC12` (stereo not drawn) showed a melting point of 167 °C.

As to `CC1=NN(c2cccc(Cl)c2)C(=O)C1`, the melting point is 125 to 128 °C. The compound `NCc1ccccc1Sc1ccccc1CO` displayed a melting point of 97 °C. Compound `Cc1nn(-c2ccccc2)nc1CBr` registered a melting point of 72 to 73 °C. To `CC(C)C12CCC(C)(CC1)O2` belongs 1 °C; to `CCN(CC)C(=O)C(Cl)(Cl)Cl`, 27 °C. To `CCCCCCCCCCCCN(CCCCCCCCCCCC)CCCCCCCCCCCC` belongs 16 °C. As to `CC(=O)C=Cc1ccc(Cl)cc1`, the melting point amounted to 55 °C.

Turning to `Fc1c(F)c(F)c(Br)c(F)c1F`, the melting point was -31 °C. For the compound `CC(=O)c1ccc(-c2cccc([N+](=O)[O-])c2)cc1`, the melting point came out at 108 °C. To `CCCCCCCCC=CCCCCCCCC(=O)Nc1ccccc1` belongs 41 °C; to `COc1cc2c(cc1O)C(C)=NCC2`, 182 to 185 °C; to `CC1OC(=O)C(C)OC1=O` (racemic), 124 °C. `CC(=O)CCc1oc2ccc([N+](=O)[O-])cc2c1-c1ccc(C)o1` came in with a melting point of 124 °C. To `COC(=O)CCC(C)C1CCC2C3C(O)C(O)C4CCCCC4(C)C3CCC12C` (stereo not drawn) belongs 120 to 121 °C; to `O=C(O)CSc1ncccn1`, 200 to 203 °C. To `COc1ccc(C(=O)C2CC2)cc1` belongs 42 °C; to `CC(=O)OC1CC2(O)C(CCC3(C)C(c4ccc(=O)oc4)CCC32O)C2(C)CCC(OC3OC(CO)C(O)C(O)C3O)C=C12` (stereo not drawn), 169 °C. To `CC12CCCC1C1CCC3CC(Cc4ccccc4)CCC3(C)C1CC2` (stereo not drawn) belongs 148 °C.

`Cc1nc(C(=O)O)c(C)o1` displayed a melting point of 232 to 233 °C. `O=C(O)c1ccc(Oc2ccccn2)cc1`: the melting point was in the range of 174 to 175 °C.

Compound `CC(C)CNC(=O)N1CCNC1=O` returned a melting point of 95.5 °C.

Consider `c1ccc(SCSc2ccccc2)cc1`, for which the melting point came out at 37 °C.

Regarding `Fc1ccc2ccccc2c1`, the melting point was determined as 61 °C. The compound `CCCCNCC` registered a melting point of -78 °C.

For the compound `CCOC(=O)C=C1SC(N2CCCCC2)C(=O)N1C` (stereo not drawn), the melting point amounted to 140 °C. As for `OC[C@@H](O)COCc1ccccc1`, the melting point lay within 24 to 27 °C. Consider `O=C1OC(=O)c2cc([N+](=O)[O-])ccc21`, for which the melting point turned out to be 115 °C. To `O=C(Oc1ccc(Cl)cc1)c1ccc(C(=O)Oc2ccc(Cl)cc2)cc1` belongs 197 °C; to `Cc1cccc(Cc2ccccc2)c1`, -28 °C.

As for `O=C(O)c1cc(Cl)sc1Cl`, the melting point came to 148 °C. For `CC(=O)Nc1ccc(C=Cc2ccc(NC(C)=O)cc2)cc1`, the melting point is 322 °C. `CC12CCC(C(=CC(=O)NC(N)=O)C1=O)C2(C)C` (stereo not drawn) gave a melting point of 206 °C. To `CC1=CCC(=O)Nc2c1cnn2-c1ccc(Cl)cc1` belongs 177 to 178 °C; to `O=C(CBr)c1ccc(-c2ccsc2)cc1`, 113 to 115 °C; to `Nc1ccc(-c2cn3c(n2)SCC3)cc1`, 225 to 226 °C. The compound `C=CC(C)(O)CCC=C(C)CCC=C(C)C` (stereo not drawn) returned a melting point of 25 °C. Consider `O=[N+]([O-])c1ccc(/C=C/c2ccc3c(c2)OCO3)c([N+](=O)[O-])c1`, for which the melting point was in the range of 178 to 179 °C. The compound `COC(=O)c1sc(C(C)(C)C)cc1N` yielded a melting point of 94 to 95 °C.

Consider `c1ccc(NNc2ccccc2)cc1`, for which the melting point turned out to be 131 °C. In turn, `Nc1ccc(O)cc1F` showed a melting point of 139 °C. Compound `CC(C)CCC(C)C` yielded a melting point of -91 °C. Consider `O=C(O)Cc1cccnc1`, for which the melting point worked out at 144 °C.

For the origin of these results see a melting point compilation (Tetko et al.).
